Results as given in ChEMBL document CHEMBL1137841, “Peptidyl aldehydes as slow-binding inhibitors of dual-specificity phosphatases” (Bioorg Med Chem Lett, 2004).

Legend:
[1] = target: T1, Dual specificity protein phosphatase 3 (Homo sapiens, UniProt P51452); test: Tested for effect on inhibition of Dual specificity protein phosphatase 3 and the value reported is overall equilibrium constant
Target sequence in this assay (P51452 whole entry): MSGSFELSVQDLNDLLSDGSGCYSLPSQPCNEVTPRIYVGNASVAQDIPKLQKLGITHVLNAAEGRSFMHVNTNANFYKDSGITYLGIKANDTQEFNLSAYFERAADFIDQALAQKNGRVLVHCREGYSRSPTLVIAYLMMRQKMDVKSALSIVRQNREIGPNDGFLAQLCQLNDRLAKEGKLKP

[2] = Tested for effect on inhibition of DSP VH1 (dual-specificity phosphatase vaccinia open reading frame H1) and the value reported is equilibrium constant
[3] = Tested for effect on inhibition of DSP VH1 (dual-specificity phosphatase vaccinia open reading frame H1) and the value reported is overall equilibrium constant
[4] = target: T1, Dual specificity protein phosphatase 3; test: Tested for effect on inhibition of Dual specificity protein phosphatase 3 at a dose of 2.5 mM
Target sequence in this assay (P51452 whole entry, looked up): as the sequence (P51452 whole entry) above

[5] = Tested for effect on inhibition of protein tyrosine phosphatase 1B
[6] = Tested for effect on inhibition of DSP VH1 (dual-specificity phosphatase vaccinia open reading frame H1)

Structure (SMILES)	Ki [1] [µM]	Ki [2] [µM]	Ki [3] [µM]	inhibition [4] [%]	IC50 [5] [µM]	IC50 [6] [µM]
NC(=O)[C@H](CCC(=O)O)NC(=O)[C@H](CCC(=O)O)NC(=O)CNC(=O)c1ccc(/C=C/C=O)cc1	290	190	18			
O=C/C=C/c1ccc(C(=O)O)cc1				40	970	~1000
